Data as given in patent US11267844B2, “Spirothietane nucleosides” (Janssen Pharmaceutica NV, priority 2017, dated 2022).
Like-named read-outs stand apart in the source and are kept apart here.

What was measured:
[1] = test system: CHIKV strain S27; test: CHIKV CPE inhibition assay in Huh7 cells; assay type: cell-based; settings: Chikungunya virus
Procedure: The antiviral activities of the nucleoside analogs against chikungunya virus (CHIKV) were tested using a cell-based high-throughput CPE (cytopathic effect) inhibition assay. In this assay, CHIKV strain S27 and Huh7 cells (a human hepatoma cell line) were employed. The test compounds were prepared in a 9-point fourfold serial dilutions and plated in a 384-well plate. Then, a density of 8000 cells/well and an MOI (Multiplicity of Infection) of 0.25 CHIKV were added to each well. The plates were incubated at 37° C./5% CO2 for 2 days. The antiviral activity of a test compound was measured by addition of an ATPLite™ 1-step kit (PerkinElmer), which measures the ATP levels in live cells protected from viral CPE by a test compound. The cytotoxicity of test compounds was measured in parallel in the absence of virus infection. The readout is luminescence.

[2] = test system: HCV replicon (NS3-NS5B regions of HCV type 1b) in Huh-7 luc/neo cells; test: HCV replicon assay (Huh-Luc cells, luciferase read-out); assay type: cell-based; settings: Hepatitis C virus
Source text: The compounds of Formula (I) were examined for activity against HCV in a cellular assay. […] The cellular assay was based on a bicistronic expression construct, as described by Lohmann et al. (1999) Science vol. 285 pp. 110-113 with modifications described by Krieger et al. (2001) Journal of Virology 75: 4614-4624, in a multi-target screening strategy.
In essence, the method was as follows. The assay utilized the stably transfected cell line Huh-7 luc/neo (hereafter referred to as Huh-Luc). This cell line harbors an RNA encoding a bicistronic expression construct comprising the wild type NS3-NS5B regions of HCV type 1b translated from an internal ribosome entry site (IRES) from encephalomyocarditis virus (EMCV), preceded by a reporter portion (FfL-luciferase), and a selectable marker portion (neo^R, neomycine phosphotransferase). The construct is bordered by 5′ and 3′ NTRs (non-translated regions) from HCV genotype 1b. Continued culture of the replicon cells in the presence of G418 (neo^R) is dependent on the replication of the HCV-RNA. The stably transfected replicon cells that express HCV-RNA, which replicates autonomously and to high levels, encoding inter alia luciferase, were used for screening the antiviral compounds.
The replicon cells were plated in 384-well plates in the presence of the test and control compounds which were added in various concentrations. Following an incubation of three days, HCV replication was measured by assaying luciferase activity (using standard luciferase assay substrates and reagents and a Perkin Elmer ViewLux™ ultraHTS microplate imager). Replicon cells in the control cultures have high luciferase expression in the absence of any inhibitor. The inhibitory activity of the compound on luciferase activity was monitored on the Huh-Luc cells, enabling a dose-response curve for each test compound. EC50 values were then calculated, which value represents the amount of the compound required to decrease the level of detected luciferase activity by 50%, or more specifically, the ability of the genetically linked HCV replicon RNA to replicate.

[3] = test system: DENV-2/16681/eGFP; test: Antiviral activity against DENV-2/16681/eGFP in Vero cells (eGFP read-out); assay type: cell-based, dengue virus serotype 2; settings: Dengue virus, DENV2, Vero, 72 h, read-out: DENV Vero (EC50, μM)
Procedure: (§1) The antiviral activity of the compounds against DENV-2/16681/eGFP was determined in a phenotypic antiviral assay with eGFP read-out, a measure for the amount of virus (TV-WI-03476 and TV-WI-05601). In parallel, cytotoxicity of the compounds was measured using ATPLite™ (PerkinElmer, Waltham, Mass.). The assay was performed in two different cell-lines (Vero and Huh-7) to exclude cell-specific activity of the compound.
(§2) DENV-2/16681/eGFP was produced by the transfection of the in vitro transcribed RNA of plasmid pFK-DVs-G2A (purchased from Prof. R. Bartenschlager, University of Heidelberg, Germany; FIG. 1) into Huh-7 cells (human hepatocarcinoma cells; kindly provided by Prof. R. Bartenschlager) (TV-WI-04247).
(§3) In brief, 2,500 Vero cells (African green monkey kidney cells; European Collection of Cell Cultures [ECACC], Porton Down, UK; catalogue number 84113001) or Huh-7 cells were seeded in 384-well plates containing 9-fold serially diluted test compound. After incubating 24 h at 37° C., Vero and Huh-7 cells were infected with DENV-2/16681/eGFP at a multiplicity of infection (MOI) of 1 and 5, respectively. After 3 days of incubation at 37° C., the viral replication was quantified by measuring eGFP expression in the cells with a laser microscope. The 50% effective concentration (EC50) was defined as the concentration inhibiting 50% of the eGFP expression of the compound-treated DENV-infected cells vs. the untreated DENV-infected cells (virus control), using the cell controls as baseline of eGFP signal (i.e., 0% signal). In the same way, the 90% effective concentration (EC90) was calculated.

[4] = Cytotoxicity in Huh-7 cells (ATPlite cell viability); assay type: cell-based; settings: human, Table 1A, read-out: Tox Huh-7 (CC50)
Procedure: as §1
(§4) In parallel, cytotoxic effects of the compounds (50% cytotoxic concentration [CC50] and 90% cytotoxic concentration [CC90]) were evaluated using an ATPlite cell viability luminescence assay (PerkinElmer). To this end, ATPlite was added to the wells according to the supplier's instructions once the eGFP read-out was performed, and the luminescence was measured; a measure directly relating to the number of viable cells. The CC50 was determined as the 50% inhibitory concentration for the luminescent signal in compound-treated DENV-infected cells compared to untreated DENV-infected cells (virus control), using a medium control as baseline of emitted light (i.e., 0% signal).

[5] = Cytotoxicity in Vero cells (ATPlite cell viability); assay type: cell-based; settings: African green monkey, Table 1A, read-out: Tox Vero (CC50)
Procedure: as §1, §4

[6] = test system: DENV-2/16681/eGFP; test: Antiviral activity against DENV-2/16681/eGFP in Huh-7 cells (eGFP read-out); assay type: cell-based, dengue virus serotype 2; settings: Dengue virus, DENV2, Huh-7, 72 h, read-out: DENV Huh-7 (EC50, μM)
Procedure: as §1, §2, §3

[7] = Huh-7, Table 1C, comparison with spiro-oxetane derivatives, read-out: CHIKV, Huh7 (EC50)
[8] = Huh-7, Table 1C, comparison with spiro-oxetane derivatives, read-out: HCV, Huh-7 (EC50)
[9] = Huh-7, 48 h, Table 1A, Huh7 cells, MOI 0.25, 2 days, read-out: CHIKV Huh-7 (EC50)
[10] = Huh-7, 72 h, Table 1A, Huh-Luc replicon cells, 3 days, read-out: HCV Huh-7 (EC50)
[11] = Huh-7, 48 h, read-out: CHIKV Huh-7 (EC50, μM)

Compound | EC50 [1, 7] | EC50 [2, 8] | EC50 [1, 9] | EC50 [3] | CC50 [4] | CC50 [5] | EC50 [6] | EC50 [2, 10] | EC50 [1, 11]
CC(C)OC(=O)[C@H](C)NP(=O)(OC[C@H]1O[C@@H](n2ccc(=O)[nH]c2=O)[C@@]2(CCO2)[C@@H]1O)Oc1ccccc1 (mixture of isomers) [reference compound] | > 100 µM | 21 µM |  |  |  |  |  |  | 
CC(C)OC(=O)[C@H](C)NP(=O)(OC[C@@]1(F)O[C@@H](n2ccc(=O)[nH]c2=O)[C@@]2(CCO2)[C@@H]1O)Oc1ccccc1 (mixture of isomers) [reference compound] | > 100 µM | > 100 µM |  |  |  |  |  |  | 
CC(C)OC(=O)C(C)NP(=O)(OC[C@@]1(N=[N+]=[N-])O[C@@H](n2ccc(=O)[nH]c2=O)[C@@]2(CCS2)[C@@H]1O)Oc1ccccc1 (stereo in doubt) [Compound 45, isopropyl (2R)-2-[[[(4R,5R,6R,8R)-6-azido-8-(2,4-dioxopyrimidin-1-yl)-5-hydroxy-7-oxa-1-thiaspiro[3.4]octan-6-yl]methoxy-phenoxy-phosphoryl]amino]propanoate] |  |  | > 100 µM | 62 µM | > 100 µM | > 100 µM | 62 µM | 5 µM | 
O=c1ccn([C@@H]2O[C@H](CO)[C@@H](O)[C@]23CCS3)c(=O)[nH]1 [Compound 7, 1-((4R,5R,7R,8R)-8-hydroxy-7-(hydroxymethyl)-6-oxa-1-thiaspiro[3.4]octan-5-yl)pyrimidine-2,4(1H,3H)-dione] |  |  |  | > 100 µM | > 100 µM | > 100 µM |  | > 100 µM | 
CC(C)OC(=O)[C@H](C)NP(=O)(OC[C@H]1O[C@@H](n2ccc(=O)[nH]c2=O)[C@@]2(CCS2)[C@@H]1O)Oc1ccccc1 (stereo partly drawn) [Compound 9, (2S)-isopropyl 2-(((((4R,5R,7R,8R)-5-(2,4-dioxo-3,4-dihydropyrimidin-1(2H)-yl)-8-hydroxy-6-oxa-1-thiaspiro[3.4]octan-7-yl)methoxy)(phenoxy)phosphoryl)amino)propanoate] | 18 µM | 1 µM | 18 µM | > 100 µM | > 100 µM | > 100 µM | 9 µM | 1 µM | 
CC(C)C(=O)OC[C@H]1O[C@@H](n2ccc(=O)[nH]c2=O)[C@@]2(CCS2)[C@@H]1OC(=O)C(C)C [Compound 10, (4R,5R,7R,8R)-5-(2,4-dioxo-3,4-dihydropyrimidin-1(2H)-yl)-7-((isobutyryloxy)methyl)-6-oxa-1-thiaspiro[3.4]octan-8-yl isobutyrate] |  |  |  | > 100 µM | > 100 µM | > 100 µM | > 100 µM | > 100 µM | > 100 µM
CC(C)C(=O)OC[C@H]1O[C@@H](n2ccc(N)nc2=O)[C@@]2(CCS2)[C@@H]1OC(=O)C(C)C [Compound 11, (4R,5R,7R,8R)-5-(4-amino-2-oxopyrimidin-1(2H)-yl)-7-((isobutyryloxy)methyl)-6-oxa-1-thiaspiro[3.4]octan-8-yl isobutyrate] |  |  |  | > 100 µM | > 100 µM | > 100 µM | > 100 µM | > 100 µM | > 100 µM
Nc1ccn([C@@H]2O[C@H](CO)[C@@H](O)[C@]23CCS3)c(=O)n1 [Compound 12, 4-amino-1-((4R,5R,7R,8R)-8-hydroxy-7-(hydroxymethyl)-6-oxa-1-thiaspiro[3.4]octan-5-yl)pyrimidin-2(1H)-one] |  |  |  | > 100 µM | > 100 µM | > 100 µM | > 100 µM | > 100 µM | > 100 µM
CC(C)OC(=O)[C@H](C)NP(=O)(OC[C@H]1O[C@@H](n2ccc(N)nc2=O)[C@@]2(CCS2)[C@@H]1O)Oc1ccccc1 (stereo partly drawn) [Compound 17, (2S)-isopropyl 2-(((((4R,5R,7R,8R)-5-(4-amino-2-oxopyrimidin-1(2H)-yl)-8-hydroxy-6-oxa-1-thiaspiro[3.4]octan-7-yl)methoxy)(phenoxy)phosphoryl)amino)propanoate] |  |  | > 50 µM | > 50 µM | > 50 µM | > 50 µM | 19 µM | > 50 µM | 
O=c1ccn([C@@H]2O[C@](F)(CO)[C@@H](O)[C@]23CCS3)c(=O)[nH]1 [Compound 22, 1-((4R,5R,7S,8R)-7-fluoro-8-hydroxy-7-(hydroxymethyl)-6-oxa-1-thiaspiro[3.4]octan-5-yl)pyrimidine-2,4(1H,3H)-dione] |  |  |  | 63 µM | > 100 µM | > 100 µM | 69 µM | 84 µM | > 100 µM
CC(C)OC(=O)[C@H](C)NP(=O)(OC[C@@]1(F)O[C@@H](n2ccc(=O)[nH]c2=O)[C@@]2(CCS2)[C@@H]1O)Oc1ccccc1 (stereo partly drawn) [Compound 23, (2S)-isopropyl 2-(((((4R,5R,7S,8R)-5-(2,4-dioxo-3,4-dihydropyrimidin-1(2H)-yl)-7-fluoro-8-hydroxy-6-oxa-1-thiaspiro[3.4]octan-7-yl)methoxv)(phenoxy)phosphoryl)amino)propanoate] | 3 µM | 2 µM | 3 µM | 85 µM | > 100 µM | > 100 µM | 14 µM | 2 µM | 
CCCCOC(=O)[C@H](C)NP(=O)(OC[C@@]1(F)O[C@@H](n2ccc(=O)[nH]c2=O)[C@@]2(CCS2)[C@@H]1O)Oc1ccccc1 (stereo partly drawn) [Compound 25, (2S)-butyl 2-(((((4R,5R,7S,8R)-5-(2,4-dioxo-3,4-dihydropyrimidin-1(2H)-yl)-7-fluoro-8-hydroxy-6-oxa-1-thiaspiro[3.4]octan-7-yl)methoxy)(phenoxy)phosphoryl)amino)propanoate] |  |  | 3 µM | 35 µM | > 100 µM | > 100 µM | 4 µM | 2 µM | 
